Results taken from patent US6656459B2, “Compositions of non-ionic block copolymers to treat autoimmune and inflammatory diseases, and to reduce graft/implantation, and methods of use thereof” (priority 2000, dated 2003).

System: Collagen-immunized DBA/I mice
Experiment: collagen-induced arthritis (CIA), frequency and severity of RA symptoms
Assay type: in vivo
Protocol: The anti-RA efficacy of SP1018R (200 μl of F127 and L61 in a ratio of 8:1 at a concentration of 2.25% ) was compared to that of MTX that was given at a human equivalent dose (0.1 mg/kg i.v.), both drugs were given on day 30 and day 37 after the first immunization with collagen. For induction of severe CIA, mice were primed with 500 μl pristane and immunized at day 14 and 21 by administration of 100 μg colagen type II in Freund's complete adjuvant. The control (placebo) and the treated animals were evaluated for RA severity. RA was graded semi-quantitatively on a scale of 0-4 for each paw: 0=no changes; 0.5=significant swelling and redness on one digit; 1=swelling and erythema of 2 digits; 2=mild swelling and erythema of the limb or swelling of more than 2 digits; 3=marked swelling and erythema of the limb; and 4=maximal swelling and redness of the limb and later, ankylosis. […] Rev. Immunol.
The data shown below represent the maximal frequency (%) of animals having developed symptoms of RA and the frequency of animals still having the symptoms of RA at the end of the study. All Pluronics used in all examples were purchased from BASF Co.
Frequency of RA development at various time points during the course of RA development

[1] = Study NG256, given twice (2X; day 30 and day 37)

CN(Cc1cnc2nc(N)nc(N)c2n1)c1ccc(C(=O)N[C@@H](CCC(=O)O)C(=O)O)cc1 [MTX, methotrexate] was tested, and the “RA severity, clinical disease symptoms (scale of 0-4 for each paw)” value (SP1018R 200 μl, MTX 0.1 mg/kg i.v., day 30 and day 37 after first immunization) was “slight therapeutic effect”, the “frequency of animals still having the symptoms of RA at the end of the study” value [1] was 100% and the “maximal frequency (%) of animals having developed symptoms of RA” value [1] was “MTX—100%”.
